Like-named read-outs stand apart in the source and are kept apart here.
Columns and labels:
[1] = target: GSK3b (GST-full length GSK3b) (Homo sapiens (Human), UniProt P49841); assay: GSK3b TR-FRET kinase assay; format: biochemical
Procedure, shortened: (§1)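 Compound was preincubated 30 min with 1 nM GST-GSK3 enzyme. Reaction ran 100 min at ambient temperature in Tris pH 7.5/MgCl2 with 200 nM biotinylated pS645-glycogen synthase 631-650 peptide and ATP (4 μM GSK3α, 2 μM GSK3b, or 1 mM). The EDTA-stopped reaction was read by TR-FRET (Tb-anti-pSer641/streptavidin-d2), and IC50s were fitted.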

[2] = target: GSK3α (GST-full length GSK3α) (Homo sapiens (Human), UniProt P49840); assay: GSK3α TR-FRET kinase assay; format: biochemical
Chain of GSK3α (GST-full length GSK3α) (P49840 whole entry): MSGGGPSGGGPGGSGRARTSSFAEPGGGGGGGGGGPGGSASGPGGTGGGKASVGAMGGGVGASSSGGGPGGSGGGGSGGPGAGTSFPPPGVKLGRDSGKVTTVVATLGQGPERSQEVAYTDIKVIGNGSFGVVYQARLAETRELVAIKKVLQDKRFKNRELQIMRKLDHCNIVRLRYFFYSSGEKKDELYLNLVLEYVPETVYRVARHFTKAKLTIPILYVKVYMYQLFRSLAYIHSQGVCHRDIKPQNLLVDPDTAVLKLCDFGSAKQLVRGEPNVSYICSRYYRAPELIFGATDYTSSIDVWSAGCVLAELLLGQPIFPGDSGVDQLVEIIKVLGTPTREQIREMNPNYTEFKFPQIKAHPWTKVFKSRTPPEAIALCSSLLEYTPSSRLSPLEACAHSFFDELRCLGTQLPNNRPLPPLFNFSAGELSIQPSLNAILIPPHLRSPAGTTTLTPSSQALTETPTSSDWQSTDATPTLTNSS
Procedure, shortened: as §1

[3] = 1 nM GSK3b, 2 μM ATP, 30 minute preincubation, read-out: GSK3-B TR-FRET BIOCHEMICAL (TR-FRET), IC50
[4] = 1 nM GSK3α, 4 μM ATP, 30 minute preincubation, read-out: GSK3-A TR-FRET BIOCHEMICAL (TR-FRET), IC50
[5] = 1 nM GSK3b, 2 μM ATP, 30 minute preincubation, Table 16, read-out: GSK3-B TR-FRET BIOCHEMICAL (TR-FRET), IC50
[6] = 1 nM GSK3α, 4 μM ATP, 30 minute preincubation, Table 16, read-out: GSK3-A TR-FRET BIOCHEMICAL (TR-FRET), IC50
[7] = 1 nM GSK3b, 2 μM ATP, 30 minute preincubation, Table 16, read-out: GSK3-B TR-FRET BIOCHEMICAL (TR-FRET)
[8] = 1 nM GSK3α, 4 μM ATP, 30 minute preincubation, Table 16, read-out: GSK3-A TR-FRET BIOCHEMICAL (TR-FRET)
[9] = read-out: GSK3-B (TR-FRET 1 mM ATP), GMean, IC50, 1 mM ATP, geometric mean
[10] = GSK3-A (TR-FRET 1 mM ATP), GMean, IC50, 1 mM ATP, geometric mean
[11] = GSK3-B (TR-FRET 1 mM ATP), GMean, IC50, 1 mM ATP, geometric mean

Chain of GSK3b (GST-full length GSK3b) (P49841 whole entry): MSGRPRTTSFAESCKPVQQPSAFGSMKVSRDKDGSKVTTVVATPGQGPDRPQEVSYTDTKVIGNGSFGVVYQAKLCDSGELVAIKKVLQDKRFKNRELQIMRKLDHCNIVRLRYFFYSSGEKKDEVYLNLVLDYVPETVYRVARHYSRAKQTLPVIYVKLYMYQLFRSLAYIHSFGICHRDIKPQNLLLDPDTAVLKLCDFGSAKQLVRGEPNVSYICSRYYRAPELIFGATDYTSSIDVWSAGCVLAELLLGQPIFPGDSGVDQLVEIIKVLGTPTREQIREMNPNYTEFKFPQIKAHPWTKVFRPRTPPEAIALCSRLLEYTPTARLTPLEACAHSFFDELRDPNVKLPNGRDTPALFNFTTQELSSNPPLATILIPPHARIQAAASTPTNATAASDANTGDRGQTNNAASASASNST

Row | Compound | IC50 [1, 5] | IC50 [2, 6] | IC50 [1, 7] | IC50 [2, 8] | also measured
1 | CC[C@]1(c2cccc(C(F)(F)F)c2)C2=C(CCN(c3ccccc3)C2=O)Nc2n[nH]cc21 [Compound 929475] |  |  |  |  | IC50 [1, 3]: > 5000 nM; IC50 [2, 4]: > 5000 nM
2 | CC[C@@]1(c2cccc(C(F)(F)F)c2)C2=C(Nc3n[nH]cc31)[C@@H](C)N(Cc1ccccc1)C2=O [Compound 930330] |  |  |  |  | IC50 [1, 3]: 100 to 1000 nM; IC50 [2, 4]: ≤ 100 nM
3 | CC[C@@]1(c2cccc(C(F)(F)F)c2)C2=C(Nc3n[nH]cc31)[C@H](C)N(Cc1ccccc1)C2=O [Compound 930331] |  |  |  |  | IC50 [1, 3]: 100 to 1000 nM; IC50 [2, 4]: ≤ 100 nM
4 | CC[C@]1(c2cccc(C(F)(F)F)c2)C2=C(Nc3n[nH]cc31)[C@H](C)N(Cc1ccccc1)C2=O [Compound 930333] |  |  |  |  | IC50 [1, 3]: > 5000 nM; IC50 [2, 4]: > 5000 nM
5 | CC1(C)CC(=O)C2=C(C1)Nc1n[nH]cc1[C@@]21CCCc2ccccc21 [Compound 930565] | > 5000 nM | 1000 to 5000 nM |  |  | 
6 | CC1(C)CC(=O)C2=C(C1)Nc1n[nH]cc1[C@]21CCCc2ccccc21 [Compound 930566] | 100 to 1000 nM | ≤ 100 nM |  |  | 
7 | CCC1(c2cccc(-c3ccnc4c3CCCC4)c2)C2=C(CC(C)(C)CC2=O)Nc2n[nH]cc21 (stereo not shown) [Compound 932625] | ≤ 100 nM | ≤ 100 nM |  |  | 
8 | CCC1(c2cccc(-c3ccnc(OC(C)C)c3)c2)C2=C(CC(C)(C)CC2=O)Nc2n[nH]cc21 (stereo not shown) [Compound 932626] | 100 to 1000 nM | 100 to 1000 nM |  |  | 
9 | CCC1(c2cccc(-c3ccncc3OC)c2)C2=C(CC(C)(C)CC2=O)Nc2n[nH]cc21 (stereo not shown) [Compound 932627] | ≤ 100 nM | ≤ 100 nM |  |  | 
10 | CCC1(c2cccc(-c3ccnc(OC)c3C)c2)C2=C(CC(C)(C)CC2=O)Nc2n[nH]cc21 (stereo not shown) [Compound 932628] | 100 to 1000 nM | ≤ 100 nM |  |  | 
11 | CCC1(c2cccc(-c3ccnc(OC(F)F)c3)c2)C2=C(CC(C)(C)CC2=O)Nc2n[nH]cc21 (stereo not shown) [Compound 932629] | 100 to 1000 nM | ≤ 100 nM |  |  | 
12 | CCC1(c2cccc(-c3cc(OC)ncc3F)c2)C2=C(CC(C)(C)CC2=O)Nc2n[nH]cc21 (stereo not shown) [Compound 932630] | ≤ 100 nM | ≤ 100 nM |  |  | 
13 | CCC1(c2cccc(-c3ccnc4ccccc34)c2)C2=C(CC(C)(C)CC2=O)Nc2n[nH]cc21 (stereo not shown) [Compound 932631] | ≤ 100 nM | ≤ 100 nM |  |  | 
14 | CC1(C)CC(=O)C2=C(C1)Nc1n[nH]cc1C21CCCN(S(=O)(=O)Cc2ccccc2)CC1 (stereo not shown) [Compound 932632] |  |  | 100 to 1000 nM | ≤ 100 nM | 
15 | CC1(C)CC(=O)C2=C(C1)Nc1n[nH]cc1C21CCCN(c2ccncc2)CC1 (stereo not shown) [Compound 932633] | > 5000 nM | > 5000 nM |  |  | 
16 | CCC1(c2cccc(N(C)c3ccc(C(F)(F)F)nc3)c2)C2=C(CC(C)(C)CC2=O)Nc2n[nH]cc21 (stereo not shown) [Compound 932634] | 100 to 1000 nM | ≤ 100 nM |  |  | 
17 | CCC1(c2cccc(-c3ccnc(C)c3)c2)C2=C(CC(C)CC2=O)Nc2n[nH]cc21 (stereo not shown) [Compound 932637] | > 5000 nM | > 5000 nM |  |  | 
18 | CCC1(c2cccc(-c3ccnc(C)c3)c2)C2=C(CC(C)CC2=O)Nc2n[nH]cc21 (stereo not shown) [Compound 932638] | > 5000 nM | > 5000 nM |  |  | 
19 | CC1(C)CC(=O)C2=C(C1)Nc1n[nH]cc1[C@@]21CCCN(S(=O)(=O)C2CC2)CC1 [Compound 932639] |  |  | 100 to 1000 nM | ≤ 100 nM | 
20 | CCC1(c2cccc(N(C)c3ccnc(OC)c3)c2)C2=C(CC(C)(C)CC2=O)Nc2n[nH]cc21 (stereo not shown) [Compound 932642] | 100 to 1000 nM | ≤ 100 nM |  |  | 
21 | CCC1(c2cccc(N3CCOc4ncccc43)c2)C2=C(CC(C)(C)CC2=O)Nc2n[nH]cc21 (stereo not shown) [Compound 932643] | 1000 to 5000 nM | 100 to 1000 nM |  |  | 
22 | CCC1(c2cccc(N(C)c3ccnc(C)c3)c2)C2=C(CC(C)(C)CC2=O)Nc2n[nH]cc21 (stereo not shown) [Compound 932645] | 1000 to 5000 nM | 100 to 1000 nM |  |  | 

Row | Compound | IC50 [1, 5] | IC50 [2, 6] | IC50 [1, 7] | IC50 [2, 8] | also measured
23 | Cn1nccc1S(=O)(=O)N1CC2(C1)C1=C(CC(C)(C)CC1=O)Nc1n[nH]cc12 [Compound 932648] |  |  | ≤ 100 nM | ≤ 100 nM | 
24 | Cn1nccc1S(=O)(=O)N1CCC2(CC1)C1=C(CC(C)(C)CC1=O)Nc1n[nH]cc12 [Compound 932649] |  |  | ≤ 100 nM | ≤ 100 nM | 
25 | CC(C)N1CC2(C1)C1=C(CC(C)(C)CC1=O)Nc1n[nH]cc12 [Compound 932650] | > 5000 nM | > 5000 nM |  |  | 
26 | CC1(C)CC(=O)C2=C(C1)Nc1n[nH]cc1C21CN(C2CCOCC2)C1 [Compound 932651] | > 5000 nM | > 5000 nM |  |  | 
27 | Cn1ccc(CN2CC3(C2)C2=C(CC(C)(C)CC2=O)Nc2n[nH]cc23)n1 [Compound 932652] | > 5000 nM | > 5000 nM |  |  | 
28 | Cn1nccc1CN1CC2(C1)C1=C(CC(C)(C)CC1=O)Nc1n[nH]cc12 [Compound 932653] | > 5000 nM | 1000 to 5000 nM |  |  | 
29 | CC1(C)CC(=O)C2=C(C1)Nc1n[nH]cc1C21CN(Cc2cnc3ccccn23)C1 [Compound 932654] | > 5000 nM | > 5000 nM |  |  | 
30 | CC1(C)CC(=O)C2=C(C1)Nc1n[nH]cc1[C@]21CCCN(S(=O)(=O)C2CC2)CC1 [Compound 932659] |  |  | 100 to 1000 nM | ≤ 100 nM | 
31 | Cn1ccc(S(=O)(=O)N2CCC[C@]3(CC2)C2=C(CC(C)(C)CC2=O)Nc2n[nH]cc23)n1 [Compound 932660] |  |  | 100 to 1000 nM | ≤ 100 nM | 
32 | CCC1(c2cccc(N3CCOc4ncccc43)c2)C2=C(CC(C)(C)CC2=O)Nc2n[nH]cc21 (stereo not shown) [Compound 932663] |  |  | ≤ 100 nM | ≤ 100 nM | 
33 | CC[C@]1(c2cccc(N(C)c3cccc(OC)n3)c2)C2=C(CC(C)(C)CC2=O)Nc2n[nH]cc21 [Compound 932666] |  |  | 100 to 1000 nM | ≤ 100 nM | 
34 | COC(=O)C1(c2ccccc2)CC2(C1)C1=C(CC(C)(C)CC1=O)Nc1n[nH]cc12 (stereo not shown) [Compound 942344] |  |  | 100 to 1000 nM | ≤ 100 nM | 
35 | COC(=O)C1(c2ccccc2)CC2(C1)C1=C(CC(C)(C)CC1=O)Nc1n[nH]cc12 (stereo not shown) [Compound 942366] |  |  | ≤ 100 nM | ≤ 100 nM | 
36 | CC1(C)CC(=O)C2=C(C1)Nc1n[nH]cc1[C@]21CCN(S(C)(=O)=O)C1 [Compound 942432] |  |  | ≤ 100 nM | ≤ 100 nM | 
37 | CC1(C)CC(=O)C2=C(C1)Nc1n[nH]cc1[C@@]21CCN(S(C)(=O)=O)C1 [Compound 942462] |  |  | ≤ 100 nM | ≤ 100 nM | 
38 | CCC1(c2cccc(N(C)c3nccc(C)n3)c2)C2=C(CC(C)(C)CC2=O)Nc2n[nH]cc21 (stereo not shown) [Compound 942642] |  |  | ≤ 100 nM | ≤ 100 nM | IC50 [1, 9]: 1000 to 5000 nM; IC50 ([2]; read-out: GSK3-A (TR-FRET 1 mM ATP), GMean, IC50, 1 mM ATP, geometric mean): ≤ 100 nM
39 | CCC1(c2cccc(-c3cc(C)nn3C)c2)C2=C(CC(C)(C)NC2=O)Nc2[nH]ncc21 (stereo not shown) [Compound 943371] |  |  |  |  | IC50 [1, 3]: 1000 to 5000 nM; IC50 [2, 4]: ≤ 100 nM
40 | CC1(C)CC(=O)C2=C(C1)Nc1n[nH]cc1[C@]21CCN(S(=O)(=O)CC2CC2)C1 [Compound 943481] |  |  | ≤ 100 nM | ≤ 100 nM | IC50 [1, 9]: 100 to 1000 nM; IC50 [2, 10]: 100 to 1000 nM
41 | CC1(C)CC(=O)C2=C(C1)Nc1n[nH]cc1[C@]21CCN(S(=O)(=O)C2CCCC2)C1 [Compound 943482] |  |  | ≤ 100 nM | ≤ 100 nM | IC50 [1, 11]: 100 to 1000 nM; IC50 [2, 10]: 100 to 1000 nM
42 | Cn1cc(S(=O)(=O)N2CC[C@]3(C2)C2=C(CC(C)(C)CC2=O)Nc2n[nH]cc23)cn1 [Compound 943483] |  |  | ≤ 100 nM | ≤ 100 nM | 
43 | Cn1ccc(S(=O)(=O)N2CC[C@]3(C2)C2=C(CC(C)(C)CC2=O)Nc2n[nH]cc23)n1 [Compound 943484] |  |  | ≤ 100 nM | ≤ 100 nM | IC50 [1, 11]: 1000 to 5000 nM; IC50 [2, 10]: 100 to 1000 nM
